Assay results taken from patent publication US7138361B2, “Herbicidal heterocycles” (E. I. du Pont de Nemours and Company, priority 2000, dated 2006).

Tests used:
Assay type in all cases: in vivo
Nightshade = test: Test C preemergence; conditions: Rate 500 g/ha, visual evaluation after 12 to 14 days
Sunflower = test: Test C preemergence; conditions: Rate 250 g/ha, scale 0 to 100, 0 no effect, 100 complete control
[1] = test system: wheat (Triticum aestivum); test: Test B postemergence; conditions: 13 to 15 days
Outline: (§1)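 Seeds were planted and sprayed preemergence with test chemical in a non-phytotoxic solvent mixture containing surfactant; postemergence plants (2 to 18 cm, 1- to 4-leaf stage) received the same formulation. Greenhouse hold 13 to 15 days, then visual rating versus untreated controls on a 0–100 scale (0 no effect, 100 complete control).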

[2] = test system: crabgrass (Digitaria sanguinalis); test: Test B postemergence; conditions: 13 to 15 days
Outline: as §1

[3] = test system: lambsquarters (Chenopodium album); test: Test B postemergence; conditions: 13 to 15 days
Outline: as §1

[4] = test system: morning glory (Ipomoea hederacea); test: Test B postemergence; conditions: 13 to 15 days
Outline: as §1

[5] = test system: barnyardgrass (Echinochloa crus-galli); test: Test B postemergence; conditions: 13 to 15 days
Outline: as §1

wild oat (Avena fatua) = test: Test B postemergence; conditions: 13 to 15 days
Outline: as §1

[6] = test system: blackgrass (Alopecurus myosuroides); test: Test B postemergence; conditions: 13 to 15 days
Outline: as §1

[7] = test system: Surinam grass (Brachiaria decumbens); test: Test B postemergence; conditions: 13 to 15 days
Outline: as §1

[8] = test system: velvetleaf (Abutilon theophrasti); test: Test B postemergence; conditions: 13 to 15 days
Outline: as §1

[9] = test system: giant foxtail (Setaria faberii); test: Test B postemergence; conditions: 13 to 15 days
Outline: as §1

[10] = test system: cocklebur (Xanthium strumarium); test: Test B postemergence; conditions: 13 to 15 days
Outline: as §1

[11] = test system: pigweed (Amaranthus retroflexus); test: Test B postemergence; conditions: 13 to 15 days
Outline: as §1

corn (Zea mays) [12] = test: Test B postemergence; conditions: 13 to 15 days
Outline: as §1

[13] = test system: crabgrass (Digitaria sanguinalis); test: Test B preemergence
Outline: as §1

rice (Oryza saliva) = test: Test B preemergence
Outline: as §1

[14] = test system: lambsquarters (Chenopodium album); test: Test B preemergence
Outline: as §1

[15] = test system: morning glory (Ipomoea hederacea); test: Test B preemergence
Outline: as §1

[16] = test system: barnyardgrass (Echinochloa crus-galli); test: Test B preemergence
Outline: as §1

[17] = test system: Surinam grass (Brachiaria decumbens); test: Test B preemergence
Outline: as §1

[18] = test system: velvetleaf (Abutilon theophrasti); test: Test B preemergence
Outline: as §1

[19] = test system: giant foxtail (Setaria faberii); test: Test B preemergence
Outline: as §1

[20] = test system: cocklebur (Xanthium strumarium); test: Test B preemergence
Outline: as §1

[21] = test system: pigweed (Amaranthus retroflexus); test: Test B preemergence
Outline: as §1

corn (Zea mays) [22] = test: Test B preemergence
Outline: as §1

[23] = Rate 125 g/ha, scale 0 (no effect) to 100 (complete control)
[24] = Rate 500 g/ha, scale 0 to 100, 0 is no effect, 100 is complete control
[25] = Preemergence, Rate 500 g/ha, scale 0 to 100, 0 no effect, 100 complete control
[26] = preemergence, Rate 125 g/ha, scale of 0 to 100 where 0 is no effect and 100 is complete control, 13 to 15 days

CC(C)Oc1cccc(N2CCC(n3ccc(C(C)C)n3)C2=O)c1 (stereo not drawn) [Compound 82]
70: Plant response rating, Sunflower (Sunflower) | Plant response rating, Lambsquarters [3, 24] | Plant response rating, Rice (rice (Oryza saliva); [26])
100: Plant response rating (0 to 100), Nightshade (Nightshade) | Plant response rating, Crabgrass [13, 25] | Plant response rating, Crabgrass [13, 26] | Plant response rating, Rice (rice (Oryza saliva); [25]) | Plant response rating, Lambsquarters [14, 25] | Plant response rating, Lambsquarters [14, 26] | Plant response rating, Barnyardgrass [16, 25] | Plant response rating, Barnyardgrass [16, 26] | Plant response rating, Surinam grass [17, 25] | Plant response rating, Foxtail, Giant [19, 25] | Plant response rating, Foxtail, Giant [19, 26] | Plant response rating, Pigweed [21, 25] | Plant response rating, Pigweed [21, 26]
20: Plant response rating, Lambsquarters [3, 23] | Plant response rating, Cocklebur [10, 24] | Plant response rating, Corn (corn (Zea mays) [22]; [25])
10: Plant response rating, Crabgrass [2, 24] | Plant response rating, Morningglory [4, 24] | Plant response rating, Pigweed [11, 24]
90: Plant response rating, Surinam grass [17, 26]
0: Plant response rating, Wheat [1, 23] | Plant response rating, Wheat [1, 24] | Plant response rating, Crabgrass [2, 23] | Plant response rating, Morningglory [4, 23] | Plant response rating, Barnyardgrass [5, 23] | Plant response rating, Barnyardgrass [5, 24] | Plant response rating, Wild Oat (wild oat (Avena fatua); [23]) | Plant response rating, Wild Oat (wild oat (Avena fatua); [24]) | Plant response rating, Blackgrass [6, 23] | Plant response rating, Blackgrass [6, 24] | Plant response rating, Surinam grass [7, 23] | Plant response rating, Surinam grass [7, 24] | Plant response rating, Velvetleaf [8, 23] | Plant response rating, Velvetleaf [8, 24] | Plant response rating, Foxtail, Giant [9, 23] | Plant response rating, Foxtail, Giant [9, 24] | Plant response rating, Cocklebur [10, 23] | Plant response rating, Pigweed [11, 23] | Plant response rating, Corn (corn (Zea mays) [12]; [23]) | Plant response rating, Corn (corn (Zea mays) [12]; [24]) | Plant response rating, Morningglory [15, 25] | Plant response rating, Morningglory [15, 26] | Plant response rating, Velvetleaf [18, 25] | Plant response rating, Velvetleaf [18, 26] | Plant response rating, Cocklebur [20, 25] | Plant response rating, Cocklebur [20, 26] | Plant response rating, Corn (corn (Zea mays) [22]; [26])

CCC(C)c1ccn(C2CCN(c3cccc(OC(C)C)c3)C2=O)n1 (stereo not drawn) [Compound 83]
90: Plant response rating, Surinam grass [17, 25]
60: Plant response rating, Lambsquarters [3, 24]
20: Plant response rating, Rice (rice (Oryza saliva); [26]) | Plant response rating, Corn (corn (Zea mays) [22]; [25]) | Plant response rating, Corn (corn (Zea mays) [22]; [26])
0: Plant response rating, Sunflower (Sunflower) | Plant response rating, Wheat [1, 23] | Plant response rating, Wheat [1, 24] | Plant response rating, Crabgrass [2, 23] | Plant response rating, Crabgrass [2, 24] | Plant response rating, Morningglory [4, 23] | Plant response rating, Barnyardgrass [5, 23] | Plant response rating, Barnyardgrass [5, 24] | Plant response rating, Wild Oat (wild oat (Avena fatua); [23]) | Plant response rating, Wild Oat (wild oat (Avena fatua); [24]) | Plant response rating, Blackgrass [6, 23] | Plant response rating, Blackgrass [6, 24] | Plant response rating, Surinam grass [7, 23] | Plant response rating, Surinam grass [7, 24] | Plant response rating, Velvetleaf [8, 23] | Plant response rating, Velvetleaf [8, 24] | Plant response rating, Foxtail, Giant [9, 23] | Plant response rating, Foxtail, Giant [9, 24] | Plant response rating, Pigweed [11, 23] | Plant response rating, Corn (corn (Zea mays) [12]; [23]) | Plant response rating, Corn (corn (Zea mays) [12]; [24]) | Plant response rating, Morningglory [15, 26] | Plant response rating, Velvetleaf [18, 25] | Plant response rating, Velvetleaf [18, 26] | Plant response rating, Cocklebur [20, 25] | Plant response rating, Cocklebur [20, 26]
100: Plant response rating (0 to 100), Nightshade (Nightshade) | Plant response rating, Crabgrass [13, 25] | Plant response rating, Crabgrass [13, 26] | Plant response rating, Rice (rice (Oryza saliva); [25]) | Plant response rating, Lambsquarters [14, 25] | Plant response rating, Lambsquarters [14, 26] | Plant response rating, Barnyardgrass [16, 25] | Plant response rating, Barnyardgrass [16, 26] | Plant response rating, Foxtail, Giant [19, 25] | Plant response rating, Foxtail, Giant [19, 26] | Plant response rating, Pigweed [21, 25] | Plant response rating, Pigweed [21, 26]
10: Plant response rating, Lambsquarters [3, 23] | Plant response rating, Morningglory [4, 24] | Plant response rating, Cocklebur [10, 23] | Plant response rating, Cocklebur [10, 24] | Plant response rating, Pigweed [11, 24]
70: Plant response rating, Surinam grass [17, 26]
